Target: T1, JAK2V617F (Homo sapiens, UniProt O60674, V617F)
T1 construct: expressed in transfected cells; host or cells: Ba/F3 (murine pro-B) cells
Assay: Ba/F3 JAK2V617F cell-based assay (Cellomics ArrayScan HCS)
Parameters: species or system murine
Details: Ba/F3 cells expressing JAK2V617F, 60 min compound incubation; read-out: relative IC50, inhibition of pSTAT5
Text: JAK2 target inhibition has been evaluated in Ba/F3 expressing JAK2 V617F by Western blot as reported in Wernig et al. (Wernig G, et al. Efficacy of TG101348, a selective JAK2 inhibitor, in treatment of a murine model of JAK2V617F-induced polycythemia vera, Cancer Cell, April; 13(4):311-20). A medium throughput Cellomics assay was established to evaluate the JAK2 target inhibition in Ba/F3 cells expressing JAK2V617F. This assay enables the discovery of an effective therapeutic agent to treat disorders associated with JAK2V617F mutation.
Ba/F3 (murine pro-B) cells expressing JAK2V617F maintained in RPMI 1640 with 10% FBS, 0.07% sodium bicarbonate, 1 mM sodium pyruvate, 1× antibiotic/antimycotic (Invitrogen, Carlsbad, Calif.) and 0.45% glucose (Sigma, St Louis, Mo.). Cells are kept at 37° C. with 5% CO2. The test compound is prepared in 100% DMSO at 10 mM concentration. […]
After cell treatment, 500 μL of 1% formaldehyde solution (made freshly with phosphate-buffered saline (PBS) and kept warm at 37° C.) is added to each well. […] An aliquot of 200 μL of 1 to 10 dilution of Mouse anti-pSTAT5 (pY694) Alexa Fluor 647® in fluorescence activated cell sorting (FACS) buffer is added to the cells. […] Mean fluorescent intensity data are collected and analyzed using Cellomics Arrayscan® VTi. […] The relative IC50 is calculated using a 4 parameter logistic curve fitting analysis with ActivityBase 4.0. […]

T1 sequence (O60674 whole entry V617F): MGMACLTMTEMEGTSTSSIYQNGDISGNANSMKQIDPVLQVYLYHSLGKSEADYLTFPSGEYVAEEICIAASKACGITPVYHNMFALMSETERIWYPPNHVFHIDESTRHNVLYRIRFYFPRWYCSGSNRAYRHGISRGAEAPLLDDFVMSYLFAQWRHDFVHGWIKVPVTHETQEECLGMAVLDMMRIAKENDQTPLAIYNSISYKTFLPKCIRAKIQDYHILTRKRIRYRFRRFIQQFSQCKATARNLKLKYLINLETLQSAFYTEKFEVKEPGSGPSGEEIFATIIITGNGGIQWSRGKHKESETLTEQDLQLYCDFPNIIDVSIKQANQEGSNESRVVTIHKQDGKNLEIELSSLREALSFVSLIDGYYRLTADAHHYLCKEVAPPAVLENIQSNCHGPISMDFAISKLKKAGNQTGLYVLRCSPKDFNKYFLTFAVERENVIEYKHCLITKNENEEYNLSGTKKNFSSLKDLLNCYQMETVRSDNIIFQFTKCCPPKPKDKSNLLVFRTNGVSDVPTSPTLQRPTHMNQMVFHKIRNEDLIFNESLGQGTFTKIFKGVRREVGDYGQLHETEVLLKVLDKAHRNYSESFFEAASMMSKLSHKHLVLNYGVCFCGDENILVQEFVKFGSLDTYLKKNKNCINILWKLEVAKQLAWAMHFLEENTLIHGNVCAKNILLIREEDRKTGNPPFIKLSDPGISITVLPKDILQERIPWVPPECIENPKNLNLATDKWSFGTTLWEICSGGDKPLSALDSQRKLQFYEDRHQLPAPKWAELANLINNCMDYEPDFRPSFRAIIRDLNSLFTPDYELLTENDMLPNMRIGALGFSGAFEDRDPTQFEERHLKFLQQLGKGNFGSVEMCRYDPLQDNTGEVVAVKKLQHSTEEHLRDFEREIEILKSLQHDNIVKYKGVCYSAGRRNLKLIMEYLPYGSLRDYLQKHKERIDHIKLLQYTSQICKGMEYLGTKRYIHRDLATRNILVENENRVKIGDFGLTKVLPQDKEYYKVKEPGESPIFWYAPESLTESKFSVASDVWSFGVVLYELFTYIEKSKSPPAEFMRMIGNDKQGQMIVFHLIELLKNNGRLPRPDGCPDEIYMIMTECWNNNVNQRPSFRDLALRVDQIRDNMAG

IC50: 30 nM
SMILES: Cc1cc(Nc2cc(CN3CCOCC3)c3nc(C)c(Cc4ccc(Cl)cc4F)n3n2)n[nH]1 [3-(4-Chloro-2-fluorobenzyl)-2-methyl-N-(5-methyl-1H-pyrazol-3-yl)-8-(morpholinomethyl)imidazo[1,2-b]pyridazin-6-amine]

— US20100286139A1, “AMINO PYRAZOLE COMPOUND” (ELI LILLY AND COMPANY, priority 2008, published 2010)
